Structures can show the parent of a compound that is named as a salt.
System: MDA-MB-231 human breast cancer cells
Assay: Cell proliferation assay (CellTiter-Glo, 72 hours treatment)
Type: cell-based
Conditions: Homo sapiens; MDA-MB-231 cells, 72 hours at 37° C., CellTiter-Glo; read-out: MDA-MB-231 cell proliferation assay (IC50)
Method in brief: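 IC50 categories: under 100 nM +++, 100–1000 nM ++, above 1000 nM +, derived by sigmoidal curve fitting of CellTiter-Glo luminescence. Cells plated at 2,500 per well, dosed the following day and exposed 72 h at 37 °C versus DMSO control.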

Structure (SMILES)	IC50 [nM]
COc1cncc2c1[C@]1(O)[C@H](O)[C@H](CN(C)CC(F)(F)F)[C@@H](c3ccccc3)[C@]1(c1ccc(C#N)cc1)O2 (single isomer, unassigned) [233F]	100 to 1000
COc1cncc2c1[C@]1(O)[C@H](O)[C@H](CN(C)C(C)(C)C)[C@@H](c3ccccc3)[C@]1(c1ccc(C#N)cc1)O2 (single isomer, unassigned) [243F]	100 to 1000
COc1cncc2c1[C@]1(O)[C@H](O)[C@H](CN(C)CCF)[C@@H](c3ccccc3)[C@]1(c1ccc(C#N)cc1)O2 (single isomer, unassigned) [248F]	< 100
COc1cncc2c1[C@]1(O)[C@H](O)[C@H](CN(C)Cc3ccnn3C)[C@@H](c3ccccc3)[C@]1(c1ccc(C#N)cc1)O2 (single isomer, unassigned) [250F]	> 1000
COc1cncc2c1[C@]1(O)[C@H](O)[C@H](CN(C)CC(C)(C)O)[C@@H](c3ccccc3)[C@]1(c1ccc(C#N)cc1)O2 (single isomer, unassigned) [252F]	< 100
COc1cncc2c1[C@]1(O)[C@H](O)[C@H](CNCC(C)(C)O)[C@@H](c3ccccc3)[C@]1(c1ccc(C#N)cc1)O2 (single isomer, unassigned) [254F]	< 100
COc1cncc2c1[C@]1(O)[C@H](O)[C@H](CN(C)C)[C@@H](c3ccccc3)[C@]1(c1ccc(C)cc1)O2 (single isomer, unassigned) [256F]	< 100
COc1cncc2c1[C@]1(O)[C@H](O)[C@H](CN3CCCCC3)[C@@H](c3ccccc3)[C@]1(c1ccc(C#N)cc1)O2 (single isomer, unassigned) [258F]	< 100
COCCN(C)C[C@H]1[C@@H](O)[C@@]2(O)c3c(OC)cncc3O[C@@]2(c2ccc(C#N)cc2)[C@@H]1c1ccccc1 (single isomer, unassigned) [261F]	< 100
COc1cncc2c1[C@]1(O)[C@H](O)[C@H](CN3[C@@H]4CC[C@H]3COC4)[C@@H](c3ccccc3)[C@]1(c1ccc(C#N)cc1)O2 (single isomer, unassigned) [265F]	100 to 1000
COc1cncc2c1[C@]1(O)[C@H](O)[C@H](CN3[C@@H]4CCC[C@H]3CC4)[C@@H](c3ccccc3)[C@]1(c1ccc(C#N)cc1)O2 (single isomer, unassigned) [268F]	100 to 1000
COc1cncc2c1[C@]1(O)[C@H](O)[C@H](CN(C)C)[C@@H](c3ccccc3)[C@]1(c1ccc(Cl)cc1)O2 (single isomer, unassigned) [272F]	< 100
COc1cncc2c1[C@]1(O)[C@H](O)[C@H](CN3CC4CC(C3)O4)[C@@H](c3ccccc3)[C@]1(c1ccc(C#N)cc1)O2 (single isomer, unassigned) [274F]	100 to 1000
COc1cncc2c1[C@]1(O)[C@H](O)[C@H](CN3CCC(F)(F)C3)[C@@H](c3ccccc3)[C@]1(c1ccc(C#N)cc1)O2 (single isomer, unassigned) [280F]	100 to 1000
COc1cncc2c1[C@]1(O)[C@H](O)[C@H](CN3CCOCC3)[C@@H](c3ccccc3)[C@]1(c1ccc(C(F)(F)F)cc1)O2 (single isomer, unassigned) [282F]	100 to 1000
COc1cncc2c1[C@]1(O)[C@H](O)C(CN3CCN(C)CC3)[C@@H](c3ccccc3)[C@]1(c1ccc(C(F)(F)F)cc1)O2 (single isomer, unassigned) [284F]	100 to 1000
COc1cncc2c1[C@]1(O)[C@H](O)[C@H](CNCC(F)F)[C@@H](c3ccccc3)[C@]1(c1ccc(C(F)(F)F)cc1)O2 (single isomer, unassigned) [286F]	100 to 1000
COc1cncc2c1[C@]1(O)[C@H](O)[C@H](CNC(C)(C)C)[C@@H](c3ccccc3)[C@]1(c1ccc(C#N)cc1)O2 (single isomer, unassigned) [290F]	100 to 1000
CS(=O)(=O)[C@H]1[C@@H](O)[C@@]2(O)c3ncc(C#N)cc3O[C@@]2(c2ccc(C#N)cc2)[C@@H]1c1ccccc1 [86F, (5aR,6S,7R,8S,8aS)-5a-(4-cyanophenyl)-8,8a-dihydroxy-7-(methylsulfonyl)-6-phenyl-5a,7,8,8a-tetrahydro-6H-cyclopenta[4,5]furo[3,2-b]pyridine-3-carbonitrile]	> 1000
CN(C)C[C@H]1[C@@H](O)[C@@]2(O)c3ncc(Cl)cc3O[C@@]2(c2ccc(C#N)cc2)[C@@H]1c1ccccc1 [104F, 4-((5aR,6S,7S,8R,8aS)-3-chloro-7-((dimethylamino)methyl)-8,8a-dihydroxy-6-phenyl-6,7,8,8a-tetrahydro-5aH-cyclopenta[4,5]furo[3,2-b]pyridin-5a-yl)benzonitrile]	100 to 1000
COCCNC[C@H]1[C@@H](O)[C@@]2(O)c3c(OC)cncc3O[C@@]2(c2ccc(C#N)cc2)[C@@H]1c1ccccc1 [263F, 4-((4bS,5R,6S,7S,7aR)-4b,5-dihydroxy-4-methoxy-6-(((2-methoxyethyl)amino)methyl)-7-phenyl-4b,5,6,7-tetrahydro-7aH-cyclopenta[4,5]furo[2,3-c]pyridin-7a-yl)benzonitrile hydrochloride]	< 100
COc1cncc2c1[C@]1(O)[C@H](O)[C@H](CN(C)Cc3cccnc3)[C@@H](c3ccccc3)[C@]1(c1ccc(C#N)cc1)O2 [278F, 4-((4bS,5R,6S,7S,7aR)-4b,5-dihydroxy-4-methoxy-6-((methyl(pyridin-3-ylmethyl)amino)methyl)-7-phenyl-4b,5,6,7-tetrahydro-7aH-cyclopenta[4,5]furo[2,3-c]pyridin-7a-yl)benzonitrile]	100 to 1000
COc1nc(C#N)cc2c1[C@]1(O)[C@H](O)[C@H](CN3CC(F)(F)C3)[C@@H](c3ccccc3)[C@]1(c1ccc(C#N)cc1)O2 [288F, (5aR,6S,7S,8R,8aS)-5a-(4-cyanophenyl)-7-((3,3-difluoroazetidin-1-yl)methyl)-8,8a-dihydroxy-1-methoxy-6-phenyl-5a,7,8,8a-tetrahydro-6H-cyclopenta[4,5]furo[3,2-c]pyridine-3-carbonitrile]	< 100
COc1cncc2c1[C@]1(O)[C@H](O)[C@H](CNCC(F)(F)F)[C@@H](c3ccccc3)[C@]1(c1ccc(C#N)cc1)O2 [291F, 4-((4bS,5R,6S,7S,7aR)-4b,5-dihydroxy-4-methoxy-7-phenyl-6-(((2,2,2-trifluoroethyl)amino)methyl)-4b,5,6,7-tetrahydro-7aH-cyclopenta[4,5]furo[2,3-c]pyridin-7a-yl)benzonitrile]	100 to 1000

Same assay, conditions: MDA-MB-231 cells, 72 hours at 37° C., CellTiter-Glo; read-out: MDA-MB-231 cell proliferation assay (IC50)

Structure (SMILES)	IC50 [nM]
CN(C)C[C@H]1[C@@H](O)[C@@]2(O)c3ncc(C#N)cc3O[C@@]2(c2ccc(C#N)cc2)[C@@H]1c1ccccc1 [105F]	> 1000

— patent US10577378B2, “EIF4A-inhibiting compounds and methods related thereto” (eFFECTOR Therapeutics, Inc., priority 2015, dated 2020)
